Data set [1] concerns MDA-MB-435 human breast tumor xenografts. Briefly: MDA-MB-435 human tumor xenografts treated with HKP, Abraxane® or both. The following applies: nineteen weeks; HKP 250 ug i.v. weekly x16; Abraxane® 10 mg/kg/day i.v. x5 days. The class given is in vivo, mice. As for the experimental part: Methods: MDA-MB-435 human tumor xenografts were established at an average tumor volume of 100 mm^3, mice were randomized into groups of 12-13 animals and treated with HKP, Abraxane®, or HKP and Abraxane®. HKP was delivered i.v. (250 ug), once a week, for 16 weeks. Abraxane® was administered i.v., daily for 5 days at 10 mg/kg/day only for the first week of treatment. The Abraxane® dose used was substantially below its MTD (30 mg/kg/day, qd×5) to prevent the tumor from complete regression so effect of HKP could be noted.
For orientation: A xenograft is tissue or cells of one species grown in another, often human tumour cells in immunodeficient mice.

The next data set concerns MCF7-S breast carcinoma. The experiment in a line: Cytotoxic activity in MCF7-S. The class given is cell-based, human.
The test system of data set [2] is MCF7-R (pgp+) multidrug resistant variant. As for the experimental part:
(§1) Its cytotoxicity was also assessed against the NCI-60 human tumor cell line panel.

Data set [3] relates to NCI-60 human tumor cell line panel. Briefly: NCI-60 human tumor cell line panel. The class given is cell-based. The following applies: NCI 60 panel. As for the experimental part: as §1
A further data set has as its system VEGF-A protein. The experiment in a line: VEGF-A protein in tumor extracts by ELISA. A general note: ELISA stands for enzyme-linked immunosorbent assay.
Data set [4] relates to MDA-MB-231 human breast cancer xenografts. Briefly: MDA-MB-231 xenografts: tumor growth, necrosis, hypoxia (Example 24). The following applies: i.v. qdx5; Taxol® 10, Abraxane® 15, Doxorubicin 10 mg/kg/day.
Data set [5] has as its system Abraxane®-treated cells. Briefly: In vitro cellular cytotoxicity assay with VEGF-A or Avastin®. The class given is cell-based. The conditions noted are these: Abraxane® 1 to 24 nM. How it is done: Cells were treated with Abraxane® in a range of concentrations (1 to 24 nM).
Data set [6] has as its system Abraxane®-treated cells. The experiment in a line: In vitro clonogenic assay. It counts as cell-based. How it is done: Cells were treated with saline control, Abraxane® alone, VEGF-A alone, Avastin® alone, Abraxane®+VEGF-A or Abraxane®+Avastin®.
Data set [7] deals with Luciferase-expressing MDA-MB-231 human breast cancer xenografts. Briefly: Luciferase-expressing MDA-MB-231 xenografts, tumor growth (Example 26). The class given is in vivo, nude (nu/nu) mice.
Experimental: Abraxane®, either alone or in combination, was administered at 10 mg/kg/day daily for 5 days in two cycles separated by 1 week. […] Mice were monitored for tumor growth and drug toxicity. Mice were sacrificed when the mean tumor volume in the saline-treated control group reached 2000 mm^3.
Tumor growth inhibition (TGI) was calculated by comparing mean tumor volume of test groups to that of the control group at the last measurement of the control group.
Data set [8] concerns MDA-MB-231-Luc+ human breast cancer xenografts. Briefly: MDA-MB-231-Luc+ xenografts, one or two cycles of Abraxane® with Avastin® (Example 29). The class given is in vivo, nude (nu/nu) mice. The following applies: for % Complete Regression: day 65. As for the experimental part: One or two cycles of Abraxane® were administered. In two-cycle Abraxane® treatment, a second cycle of Abraxane® (10 mg/kg, i.v. qd×5) was administered one week after conclusion of the first cycle.

The test system of a further data set is MDA-MB-435-Luc+ tumors. Briefly: MDA-MB-435-Luc+ tumor growth (Example 31). It counts as in vivo, ICR SCID mice. As for the experimental part:
MDA-MB-435-Luc+ (“435-Luc+”) cells were implanted subcutaneously into the mammary fat pad of 4 to 6 week old female ICR SCID mice (Taconic, Hudson, N.Y.). Every 2-3 days, perpendicular tumor diameters were measured by digital caliper and used to calculate tumor volume according to the formula: volume=Dd^2π/6, where D=larger diameter and d=smaller diameter. […] Animal care was in accordance with institutional guidelines.
Two cycles of Abraxane® treatment were administered, each for 5 consecutive days with one week of rest between cycles. […] To allow maximal development of metastatic foci, mice were sacrificed when the average tumor volume in the control group reached 2000 mm^3.

For data set [9], the system named is lymph node metastasis of MDA-MB-435-Luc+. Briefly: MDA-MB-435-Luc+ lymph node metastasis. It counts as in vivo, ICR SCID mice. The conditions noted are these: ABX 10 mg/kg two cycles; Avastin® 4 mg/kg. As for the experimental part: Two cycles of Abraxane® treatment were administered, each for 5 consecutive days with one week of rest between cycles. […] The control group received PBS injected i.v. or i.p. […] Lymph nodes and lungs were excised, washed in PBS, and homogenized in 0.35 ml of cold CCLR buffer (Promega, Madison, Wis.) containing a protease inhibitor cocktail and PMSF (Sigma, Mo.). Cell debris was removed by centrifugation. Protein concentrations of cleared lysates were determined by Bradford assay (Bio-Rad, Hercules, Calif.). […] CCLR buffer without tissue homogenates and lymph nodes or lungs of non-tumor bearing mice were assayed for background signal and subtracted from the results. The net results were expressed as relative light units (“RLU”) normalized per mg of total lysate protein. […] This value was chosen because it was the minimal signal reproducibly detected above background in metastatic tissues, independently confirmed by immunohistochemical detection (data not shown). Differences in lymph node and lung metastases were assessed for statistical significance by Fisher's exact test using GraphPad InStat (GraphPad Inc., San Diego, Calif.) or SPSS 14.0 (SPSS, Inc., Chicago, Ill.).

Data set [10] relates to pulmonary metastasis of MDA-MB-435-Luc+. Briefly: MDA-MB-435-Luc+ pulmonary metastasis. The class given is in vivo, ICR SCID mice. The conditions noted are these: ABX 10 mg/kg two cycles; Avastin® 4 mg/kg.
Experimental: Tumor metastasis was determined by measuring luciferase activity in tissue extracts derived from 10 axillary lymph nodes (“LN”) and both lobes of the lungs. Lymph nodes and lungs were excised, washed in PBS, and homogenized in 0.35 ml of cold CCLR buffer (Promega, Madison, Wis.) containing a protease inhibitor cocktail and PMSF (Sigma, Mo.). Cell debris was removed by centrifugation. Protein concentrations of cleared lysates were determined by Bradford assay (Bio-Rad, Hercules, Calif.). Fifty μl of Luciferase Assay Reagent (Promega, Madison, Wis.) was mixed with 10 μl of cleared lysate and a 10 second average of luminescence was detected using a single tube luminometer (Berthold, Germany). […] The net results were expressed as relative light units (“RLU”) normalized per mg of total lysate protein. […] Differences in lymph node and lung metastases were assessed for statistical significance by Fisher's exact test using GraphPad InStat (GraphPad Inc., San Diego, Calif.) or SPSS 14.0 (SPSS, Inc., Chicago, Ill.).
Data set [11] deals with MDA-MB-231-Luc+ lymphatic and pulmonary metastases. The experiment in a line: Lymphatic and pulmonary metastasis of well-established 231-Luc+ tumors (Example 32). The following applies: Abraxane® 30 mg/kg qd×5; Avastin® 4 mg/kg q2×wkly; tumors ~460 mm^3. It counts as in vivo, nu/nu mice. As for the experimental part: MDA-MB-231 or 231-Luc^+ cells were implanted into the MFP of 4 to 6 week old female nu/nu mice (Harlan Sprague-Delaney, Indianapolis, Ind.) by standard methods. Briefly, mice were anesthetized and 100 μl of cell suspension containing 4×10^6 cells and 50% Matrigel (Sigma, Mo.) were injected into the MFP. Every 2-3 days, perpendicular tumor diameters were measured by digital caliper and used to calculate tumor volume according to the formula: Volume=Dd^2π/6, where D=larger diameter and d=smaller diameter. […] Animal care was in accordance with institutional guidelines.
Luciferase-expressing orthotopic MDA-MB-231 (231-Luc+) xenografts were grown to well-established tumors (˜460 mm^3) and randomized to four groups of N=5, 6 or 7.
Metastases of MDA-MB-231-Luc+ tumor cells were identified by measuring luciferase activity in tissue extracts from lymph nodes and lungs, as described in Example 31 above. […] This value was chosen because it represented the minimal signal which could be reproducibly detected above background in tissues in which metastases were independently confirmed by immunohistochemical detection of human cells. The net results were expressed as relative light units (RLU) normalized per mg of total lysate protein, and are presented in FIG. 17A (lymphatic metastasis) and FIG. 17B (pulmonary metastasis).

Setting [12] is: Experiment No. 1: one cycle, Avastin® 2 mg/kg.
Setting [13] is: Experiment No. 2: two cycles, Avastin® 4 mg/kg.

Experimental for VEGF-A protein: All drugs and control saline were administered i.v. in a volume of 100 μl daily for 5 days. Mice were sacrificed, tumors were harvested and tumor cellular extracts were prepared. VEGF-A protein levels in tumor extracts were determined by ELISA.

Consider CNGRC-GG-d(KLAKLAK)2 [HKP], for which, in data set [1], the tumor volume is 4,372 mm^3.

By IC50 is commonly meant the midpoint of a concentration-inhibition curve. High values mean lower potency, low ones higher potency. In the case of `COc1cc2c(c(OC)c1OC)-c1ccc(SC)c(=O)cc1[C@@H](NC(=O)CCNC(=O)N[C@H]1CCc3cc(OC)c(OC)c(OC)c3-c3ccc(SC)c(=O)cc31)CC2` [IDN5404], the IC50 with MCF7-S breast carcinoma was 1.7 ± 0.1 nM; in [2] (MCF7-R), 40 ± 3.8 nM; in data set [3], under 10 nM. For the same molecule, the “fold resistance MCF7-R vs MCF7-S” value in [2] is reported as over 10 fold.

In turn, `COc1cccc2c1C(=O)c1c(O)c3c(c(O)c1C2=O)C[C@@](O)(C(=O)CO)C[C@@H]3O[C@H]1C[C@H](N)[C@H](O)[C@H](C)O1` [Doxorubicin] showed a VEGF-A in the data set on VEGF-A protein (tumor extracts, i.v. qdx5) of 754 ± 49 pg/mg protein. For the same molecule, the “increase in VEGF-A protein levels” value in the data set with VEGF-A protein (vs saline control) is 124%. In data set [4], the “% TGI” value is given as 45% and the “Mean Tumor Volume” value was determined as 287 ± 56 mm^3.

“Avastin®: anti-VEGF antibody bevacizumab”: the “effect of addition on in vitro cytotoxicity of Abraxane®” value in the data set with Abraxane®-treated cells [5] was “increased the in vitro cytotoxicity of Abraxane®”. Besides, the “number of colonies formed” value in the data set on Abraxane®-treated cells [6] was “slight reduction in the number of colonies formed”. Further, the “% TGI” value in [7] (Abraxane® 10 mg/kg/day two cycles, Avastin® 4 mg/kg) came to 12.56%; in [8] (setting [12]) it was 54.16%; in data set [8] (setting [13]) it was 12.56%; in the data set on MDA-MB-435-Luc+ tumors (ABX 10 mg/kg two cycles, Avastin® 4 mg/kg), 60.79%. Also, the “Mean Tumor Volume” value in [7] (Abraxane® 10 mg/kg/day x5 days, two cycles, Avastin® 4 mg/kg twice a week for 6 weeks) came out at 2089 ± 251 mm^3; in [8] (Experiment No. 1: one cycle of Abraxane® 10 mg/kg, Avastin® 2 mg/kg), 953 ± 127 mm^3; in data set [8] (Experiment No. 2: two cycles of Abraxane® 10 mg/kg, Avastin® 4 mg/kg), 2089 ± 251 mm^3. Further, the “% Complete Regression” value in [7] (day 65, Abraxane® two cycles, Avastin® 4 mg/kg) amounted to 0%; in [8] (setting [12]), 0%; in [8] (setting [13]), 0%. The “% TGD” value is on record as 13% in data set [8] (Experiment No. 1: one cycle, Avastin® 2 mg/kg, time to 1000 mm^3 vs control) and 7% in [8] (setting [13]). Also, the “% Complete Regressions” value with MDA-MB-435-Luc+ tumors (92 days) is recorded as 0%. Also, the “tumor volume” value in the data set with MDA-MB-435-Luc+ tumors (ABX 10 mg/kg i.v. qd×5 two cycles, Avastin® 4 mg/kg i.p. twice a week) was found to be 792 mm^3. For the same molecule, the “Lymph node metastasis % Inhibition vs. Control” value in data set [9] stood at 100%. Moreover, in data set [10], the “Pulmonary metastasis % Inhibition vs. Control” value came out at 50%. Besides, the “lymphatic and pulmonary metastases” value in [11] was “failed to prevent metastasis”.

(Values after patent publication US9561288B2, “Combinations and modes of administration of therapeutic agents and combination therapy” (Abraxis BioScience, LLC, priority 2005, dated 2017).)
